Source: US11091497B2, “Pyrano[3,4-b]pyrazine kappa opioid receptor ligands for treating addiction, pruritus, pain, and inflammation” (The Rockefeller University, priority 2017, dated 2021)
pEC50, pIC50: −log10 of the molar value.

Key:
Serum prolactin levels = test: Prolactin release in mice; format: in vivo; settings: intraperitoneal, 30 minutes prior to sampling
Description: Mice were injected intraperitoneally with the compound to be tested 30 minutes prior to sampling. Trunk blood was collected by rapid decapitation, followed within 2 hours by preparation of serum. Serum prolactin levels were determined using a commercially available enzyme-linked immunoassay (AbCam, Cambridge, UK) following dilution of serum 5-fold in assay buffer.

[1] = molecular target: T1, kappa opioid receptor (PathHunter U2OS hOPRK1 β-arrestin cell line) (Homo sapiens, UniProt P41145); test: β-arrestin coupling (PathHunter Detection Kit); format: cell-based; settings: for Emax at 10 µM: U2OS, read-out: β-arrestin coupling % efficacy
T1 construct: host or cells: U2OS (PathHunter U2OS hOPRK1 β-arrestin cell line)
T1 sequence (P41145 whole entry): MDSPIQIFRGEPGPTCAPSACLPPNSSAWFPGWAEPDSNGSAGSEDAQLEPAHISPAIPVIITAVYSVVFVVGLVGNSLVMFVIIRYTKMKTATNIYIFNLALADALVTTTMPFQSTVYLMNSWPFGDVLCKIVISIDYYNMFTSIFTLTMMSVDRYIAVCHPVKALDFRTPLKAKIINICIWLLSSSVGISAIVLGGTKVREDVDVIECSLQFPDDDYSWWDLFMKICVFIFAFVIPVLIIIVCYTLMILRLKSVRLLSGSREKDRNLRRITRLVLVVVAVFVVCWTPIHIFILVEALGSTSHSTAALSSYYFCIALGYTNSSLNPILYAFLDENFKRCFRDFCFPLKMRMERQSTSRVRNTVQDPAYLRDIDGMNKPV

[2] = molecular target: T2, kappa opioid receptor (PathHunter U2OS hOPRK1 membranes) (Homo sapiens, UniProt P41145); test: Tritiated U69,593 binding for KOP-R membranes
T2 construct: host or cells: U2OS (PathHunter U2OS hOPRK1 β-arrestin cell line)
T2 sequence (P41145 whole entry): as above

mice = test: Rotarod incoordination in mice; format: in vivo; settings: intraperitoneal
Text: In the case of rotarod incoordination, kappa agonist effects in this assay reflect kappa-opioid receptor arrestin mediated signaling. This assay is thought to be a sensitive measure of the sedative properties of kappa opioid receptor agonists. Generally, a compound which has reduced efficacy in the coupling of arrestin with the kappa opioid receptor is thought to have a lowered potential for the sedative side effects of kappa opioid receptor ligands. Rotarod assays in vivo are employed to confirm this possibility.
Rotarod experiments were conducted with mice using a dedicated rodent rotarod apparatus, with up to five animals tested concurrently (IITC Life Science, Woodland Hills, Calif., USA). Rotarod rotation rate begins at 3 rotations per minute, and ramps to 30 rotations per minute over the course of 300 s, at which time the assay is terminated and animals removed to their home cage. Animals were acclimated to the rotarod on at least two occasions prior to the day of the test. On the day of the test, baseline times for each animal to fall off the rotarod were recorded. Mice were then injected intraperitoneally with vehicle or compound, and rotarod measurements conducted, beginning 0-2 minutes after injection, and then subsequently at select time points thereafter.

O=C(Cc1ccc(Cl)c(Cl)c1)N1CCN[C@@H]2COC[C@H](N3CCCC3)[C@H]21 (racemic) [Example 5A22, 1-[8-pyrrolidin-1-yl-2,3,4,4a,5,7,8,8a-octahydropyrano(3,4-b)pyrazin-1-yl]-2-(3,4-dichlorophenyl)ethanone]
prolactin release (Serum prolactin levels; 5 mg/kg): significant prolactin release | pEC50 [1]: 5.95 | Emax at 10 µM [1]: 67% | pIC50 [2]: 7.19 | rotarod incoordination (mice; 10 mg/kg): no significant incoordination | rotarod incoordination (mice; 30 mg/kg): significant incoordination | rotarod incoordination (mice; 90 mg/kg): significant incoordination

CN1CCN(C(=O)Cc2ccc(Cl)c(Cl)c2)[C@H]2[C@H]1COC[C@@H]2N1CCCC1 (racemic) [Example 5A23, 1-[4-methyl-8-pyrrolidin-1-yl-3,4a,5,7,8,8a-hexahydro-2H- -pyrano(3,4-b)pyrazin-1-yl]-2-(3,4-dichlorophenyl)ethanone]
prolactin release (Serum prolactin levels; 30 mg/kg): significant prolactin release | pEC50 [1]: 5.26 | Emax at 10 µM [1]: 44% | pIC50 [2]: 6.99 | rotarod incoordination (mice; 10 mg/kg): no significant incoordination | rotarod incoordination (mice; 30 mg/kg): statistically significant incoordination | rotarod incoordination (mice; 90 mg/kg): statistically significant incoordination
